Test results: ChEMBL document CHEMBL3045117, “Synthesis, crystal structures, insecticidal activities, and structure--activity relationships of novel N'-tert-Butyl-N'-substituted-benzoyl-N-[di(octa)hydro]benzofuran{(2,3-dihydro)benzo[1,3]([1,4])dioxine}carbohydrazide derivatives” (2011)

Each molecule was assayed on Spodoptera exigua (assay: Stomach toxicity against third-instar Spodoptera exigua in compound treated fresh cabbage leaves assessed as insecticidal activity at 100 mg/L measured after 3 days by leaf-dip method).
Type: functional
With `Cc1cc(C)cc(C(=O)N(NC(=O)c2ccc3c(c2C)CCCO3)C(C)(C)C)c1` [CHROMAFENOZIDE] the Activity was 100%.
`Cc1cc(C)cc(C(=O)N(NC(=O)c2ccc3c(c2C)OC(C)C3)C(C)(C)C)c1` (configuration not stated) [FUXIAN] was tested, and the Activity was 100%.
Molecule `COc1cccc(C(=O)NN(C(=O)c2cc(C)cc(C)c2)C(C)(C)C)c1C` [METHOXYFENOZIDE] has an Activity of 100%.

What follows are molecules tested on Spodoptera exigua (assay: Stomach toxicity against third-instar Spodoptera exigua in compound treated fresh cabbage leaves assessed as insecticidal activity at 50 mg/L measured after 3 days by leaf-dip method).
Type: functional
Work on `Cc1cc(C)cc(C(=O)N(NC(=O)c2ccc3c(c2C)CCCO3)C(C)(C)C)c1` [CHROMAFENOZIDE] yielded an Activity of 100%.
`Cc1cc(C)cc(C(=O)N(NC(=O)c2ccc3c(c2C)OC(C)C3)C(C)(C)C)c1` (configuration not stated) [FUXIAN] gave an Activity of 100%.
`COc1cccc(C(=O)NN(C(=O)c2cc(C)cc(C)c2)C(C)(C)C)c1C` [METHOXYFENOZIDE] was tested, and the Activity was 100%.

These molecules were tested on Plutella xylostella (assay: Stomach toxicity against third-instar Plutella xylostella (diamondback moth) in compound treated fresh cabbage leaves assessed as insecticidal activity at 200 mg/L measured after 3 days by leaf-dip method).
Type: functional
`Cc1cc(C)cc(C(=O)N(NC(=O)c2cccc3oc(C)cc23)C(C)(C)C)c1` showed an Activity of 50%.
With `Cc1cc(C)cc(C(=O)N(NC(=O)c2cccc3c2CCCO3)C(C)(C)C)c1` the Activity was 0%.
Work on `Cc1cc(C)cc(C(=O)N(NC(=O)c2ccc3c(c2C)CCCO3)C(C)(C)C)c1` [CHROMAFENOZIDE] yielded an Activity of 100%.
`Cc1cc(C)cc(C(=O)N(NC(=O)c2ccc3c(c2C)OC(C)C3)C(C)(C)C)c1` (configuration not stated) [FUXIAN] gave an Activity of 100%.
With `COc1cccc(C(=O)NN(C(=O)c2cc(C)cc(C)c2)C(C)(C)C)c1C` [METHOXYFENOZIDE] the Activity was 100%.

What follows are molecules tested on Plutella xylostella (assay: Stomach toxicity against third-instar Plutella xylostella (diamondback moth) in compound treated fresh cabbage leaves assessed as insecticidal activity at 50 mg/L measured after 3 days by leaf-dip method).
Type: functional
`Cc1cc(C)cc(C(=O)N(NC(=O)c2ccc3c(c2C)CCCO3)C(C)(C)C)c1` [CHROMAFENOZIDE] showed an Activity of 100%.
`Cc1cc(C)cc(C(=O)N(NC(=O)c2ccc3c(c2C)OC(C)C3)C(C)(C)C)c1` (configuration not stated) [FUXIAN] was tested, and the Activity was 100%.
`COc1cccc(C(=O)NN(C(=O)c2cc(C)cc(C)c2)C(C)(C)C)c1C` [METHOXYFENOZIDE] was tested, and the Activity was 100%.

Each molecule was assayed on Mythimna separata (assay: Stomach toxicity against third-instar Mythimna separata (Oriental armyworm) in compound treated fresh corn leaves assessed as insecticidal activity at 50 mg/L measured after 4 days by leaf-dip method).
Type: functional
`Cc1cc(C)cc(C(=O)N(NC(=O)c2ccc3c(c2C)CCCO3)C(C)(C)C)c1` [CHROMAFENOZIDE] was tested, and the Activity was 100%.
For `Cc1cc(C)cc(C(=O)N(NC(=O)c2ccc3c(c2C)OC(C)C3)C(C)(C)C)c1` (configuration not stated) [FUXIAN], the Activity was 100%.
Molecule `COc1cccc(C(=O)NN(C(=O)c2cc(C)cc(C)c2)C(C)(C)C)c1C` [METHOXYFENOZIDE] has an Activity of 100%.

The molecules below were run on Spodoptera exigua (assay: Stomach toxicity against third-instar Spodoptera exigua in compound treated fresh cabbage leaves assessed as insecticidal activity at 10 mg/L measured after 3 days by leaf-dip method).
Type: functional
`Cc1cc(C)cc(C(=O)N(NC(=O)c2ccc3c(c2C)CCCO3)C(C)(C)C)c1` [CHROMAFENOZIDE] was tested, and the Activity was 100%.
Molecule `Cc1cc(C)cc(C(=O)N(NC(=O)c2ccc3c(c2C)OC(C)C3)C(C)(C)C)c1` (configuration not stated) [FUXIAN] has an Activity of 90%.
For `COc1cccc(C(=O)NN(C(=O)c2cc(C)cc(C)c2)C(C)(C)C)c1C` [METHOXYFENOZIDE], the Activity was 100%.

The molecules below were run on Mythimna separata (assay: Stomach toxicity against third-instar Mythimna separata (Oriental armyworm) in compound treated fresh corn leaves assessed as insecticidal activity at 100 mg/L measured after 4 days by leaf-dip method).
Type: functional
In the case of `Cc1cc(C)cc(C(=O)N(NC(=O)c2ccc3c(c2C)CCCO3)C(C)(C)C)c1` [CHROMAFENOZIDE], the Activity is reported as 100%.
In the case of `Cc1cc(C)cc(C(=O)N(NC(=O)c2ccc3c(c2C)OC(C)C3)C(C)(C)C)c1` (configuration not stated) [FUXIAN], the Activity is reported as 100%.
Work on `COc1cccc(C(=O)NN(C(=O)c2cc(C)cc(C)c2)C(C)(C)C)c1C` [METHOXYFENOZIDE] yielded an Activity of 100%.

What follows are molecules tested on Plutella xylostella (assay: Stomach toxicity against third-instar Plutella xylostella (diamondback moth) in compound treated fresh cabbage leaves assessed as insecticidal activity at 100 mg/L measured after 3 days by leaf-dip method).
Type: functional
`Cc1cc(C)cc(C(=O)N(NC(=O)c2ccc3c(c2C)CCCO3)C(C)(C)C)c1` [CHROMAFENOZIDE] gave an Activity of 100%.
Work on `Cc1cc(C)cc(C(=O)N(NC(=O)c2ccc3c(c2C)OC(C)C3)C(C)(C)C)c1` (configuration not stated) [FUXIAN] yielded an Activity of 100%.
`COc1cccc(C(=O)NN(C(=O)c2cc(C)cc(C)c2)C(C)(C)C)c1C` [METHOXYFENOZIDE] was tested, and the Activity was 100%.

Each molecule was assayed on Spodoptera exigua (assay: Stomach toxicity against third-instar Spodoptera exigua in compound treated fresh cabbage leaves assessed as insecticidal activity at 200 mg/L measured after 3 days by leaf-dip method).
Type: functional
Work on `Cc1cc(C)cc(C(=O)N(NC(=O)c2cccc3oc(C)cc23)C(C)(C)C)c1` yielded an Activity of 70%.
In the case of `Cc1cc(C)cc(C(=O)N(NC(=O)c2cccc3c2CCCO3)C(C)(C)C)c1`, the Activity is reported as 0%.
`Cc1cc(C)cc(C(=O)N(NC(=O)c2ccc3c(c2C)CCCO3)C(C)(C)C)c1` [CHROMAFENOZIDE] gave an Activity of 100%.
Molecule `Cc1cc(C)cc(C(=O)N(NC(=O)c2ccc3c(c2C)OC(C)C3)C(C)(C)C)c1` (configuration not stated) [FUXIAN] has an Activity of 100%.
Molecule `COc1cccc(C(=O)NN(C(=O)c2cc(C)cc(C)c2)C(C)(C)C)c1C` [METHOXYFENOZIDE] has an Activity of 100%.

What follows are molecules tested on Mythimna separata (assay: Stomach toxicity against third-instar Mythimna separata (Oriental armyworm) in compound treated fresh corn leaves assessed as insecticidal activity at 25 mg/L measured after 4 days by leaf-dip method).
Type: functional
`Cc1cc(C)cc(C(=O)N(NC(=O)c2ccc3c(c2C)CCCO3)C(C)(C)C)c1` [CHROMAFENOZIDE] was tested, and the Activity was 100%.
For `Cc1cc(C)cc(C(=O)N(NC(=O)c2ccc3c(c2C)OC(C)C3)C(C)(C)C)c1` (configuration not stated) [FUXIAN], the Activity was 100%.
Molecule `COc1cccc(C(=O)NN(C(=O)c2cc(C)cc(C)c2)C(C)(C)C)c1C` [METHOXYFENOZIDE] has an Activity of 100%.

The molecules below were run on Mythimna separata (assay: Stomach toxicity against third-instar Mythimna separata (Oriental armyworm) in compound treated fresh corn leaves assessed as insecticidal activity at 200 mg/L measured after 4 days by leaf-dip method).
Type: functional
For `Cc1cc(C)cc(C(=O)N(NC(=O)c2cccc3oc(C)cc23)C(C)(C)C)c1`, the Activity was 80%.
`Cc1cc(C)cc(C(=O)N(NC(=O)c2cccc3c2CCCO3)C(C)(C)C)c1` was tested, and the Activity was 30%.
Work on `Cc1cc(C)cc(C(=O)N(NC(=O)c2ccc3c(c2C)CCCO3)C(C)(C)C)c1` [CHROMAFENOZIDE] yielded an Activity of 100%.
`Cc1cc(C)cc(C(=O)N(NC(=O)c2ccc3c(c2C)OC(C)C3)C(C)(C)C)c1` (configuration not stated) [FUXIAN] gave an Activity of 100%.
Molecule `COc1cccc(C(=O)NN(C(=O)c2cc(C)cc(C)c2)C(C)(C)C)c1C` [METHOXYFENOZIDE] has an Activity of 100%.

These molecules were tested on Ostrinia nubilalis (assay: Stomach toxicity against third-instar Ostrinia nubilalis (European corn borer) in compound treated fresh corn leaves assessed as insecticidal activity at 200 mg/L measured after 4 days by leaf-dip method).
Type: functional
With `Cc1cc(C)cc(C(=O)N(NC(=O)c2cccc3oc(C)cc23)C(C)(C)C)c1` the Activity was 40%.
`Cc1cc(C)cc(C(=O)N(NC(=O)c2cccc3c2CCCO3)C(C)(C)C)c1` showed an Activity of 0%.
For `Cc1cc(C)cc(C(=O)N(NC(=O)c2ccc3c(c2C)CCCO3)C(C)(C)C)c1` [CHROMAFENOZIDE], the Activity was 100%.
`Cc1cc(C)cc(C(=O)N(NC(=O)c2ccc3c(c2C)OC(C)C3)C(C)(C)C)c1` (configuration not stated) [FUXIAN] gave an Activity of 100%.
Molecule `COc1cccc(C(=O)NN(C(=O)c2cc(C)cc(C)c2)C(C)(C)C)c1C` [METHOXYFENOZIDE] has an Activity of 100%.

What follows are molecules tested on Mythimna separata (assay: Stomach toxicity against third-instar Mythimna separata (Oriental armyworm) in compound treated fresh corn leaves assessed as insecticidal activity at 10 mg/L measured after 4 days by leaf-dip method).
Type: functional
Molecule `Cc1cc(C)cc(C(=O)N(NC(=O)c2ccc3c(c2C)CCCO3)C(C)(C)C)c1` [CHROMAFENOZIDE] has an Activity of 100%.
`Cc1cc(C)cc(C(=O)N(NC(=O)c2ccc3c(c2C)OC(C)C3)C(C)(C)C)c1` (configuration not stated) [FUXIAN] showed an Activity of 100%.
For `COc1cccc(C(=O)NN(C(=O)c2cc(C)cc(C)c2)C(C)(C)C)c1C` [METHOXYFENOZIDE], the Activity was 100%.
